In this test the test system is HEK293T cells carrying the ATF4 luciferase reporter. Nature of the test: ATF4-Luc assay (ATF4 luciferase reporter, tunicamycin-treated cells). Format: cell-based. Particulars: Homo sapiens, HEK-293T, 1 μg/mL tunicamycin, 7 hours. The procedure: In order to test exemplary compounds of the invention in a cellular context, a stable VWMD cell line was first constructed. The ATF4 reporter was prepared by fusing the human full-length ATF4 5′-UTR (NCBI Accession No. BC022088.2) in front of the firefly luciferase (FLuc) coding sequence lacking the initiator methionine as described in Sidrauski et al (eLife 2013). The construct was used to produce recombinant retroviruses using standard methods and the resulting viral supermatant was used to transduce ITEK293T cells, which were then subsequently selected with puromycin to generate a stable cell line.
HTEK293T cells carrying the ATF4 luciferase reporter were plated on polylysine coated 384-well plates (Greiner Bio-one) at 30,000 cells per well. Cells were treated the next day with 1 μg/mL tunicamycin and 200 nM of a compound of Formula (I) for 7 hours. Luminescence was measured using One Glo (Promega) as specified by the manufacturer. Cells were maintained in DMEM with L-glutamine supplemented with 10% heat-inactivated FBS (Gibco) and Antibiotic-Antimycotic solution (Gibco).
Table 2 below summarizes the EC50 data obtained using the ATF4-Luc assay for exemplary compounds of the invention.
(In general: In a reporter assay the amount or activity of a reporter protein is the signal.)
Consider `Cc1cc(C(=O)NC23CCC(NC(=O)COc4ccc(Cl)c(Cl)c4)(CC2)[C@@H](O)C3)sn1` [Compound 1002, N-{(3S)-4-[2-(3,4-dichlorophenoxy)acetamido]-3-hydroxybicyclo[2.2.2]octan-1-yl}-3-methyl-1,2-thiazole-5-carboxamide], for which the EC50 is < 0.05 µM.
To `O=C(COc1ccc(Cl)c(F)c1)NC12CC(Nc3ccnc(-n4ccnc4)c3)(C1)C2` [Compound 955, 2-(4-chloro-3-fluorophenoxy)-N-(3-{[2-(1H-imidazol-1-yl)pyridin-4-yl]amino}bicyclo[1.1.1]pentan-1-yl)acetamide] belongs 0.25 to 1 µM; to `O=C(COc1ccc(Cl)c(F)c1)NC12CC(Nc3cc(N4CCOCC4)ccn3)(C1)C2` [Compound 963, 2-(4-chloro-3-fluorophenoxy)-N-(3-{[4-(morpholin-4-yl)pyridin-2-yl]amino}bicyclo[1.1.1]pentan-1-yl)acetamide], > 2 µM; to `Cn1nnc(-c2ccc(NC34CC(NC(=O)COc5ccc(Cl)c(F)c5)(C3)C4)cn2)n1` [Compound 1046, 2-(4-chloro-3-fluorophenoxy)-N-(3-{[6-(2-methyl-2H-tetrazol-5-yl)pyridin-3-yl]amino}bicyclo[1.1.1]pentan-1-yl)acetamide], > 2 µM.
Regarding `COc1ncc(OCC(=O)NC23CCC(NC(=O)c4cc(C(F)F)no4)(CC2)C[C@@H]3O)cn1` [Compound 1069, 3-(difluoromethyl)-N-[(3S)-3-hydroxy-4-{2-[(2-methoxypyrimidin-5-yl)oxy]acetamido}bicyclo[2.2.2]octan-1-yl]-1,2-oxazole-5-carboxamide], the EC50 lay in the range of 1 to 2 µM.
As for `Cc1nn(C)cc1C(=O)NC12CCC(NC(=O)COc3ccc(Cl)c(F)c3)(CC1)C[C@@H]2O` [Compound 1107, N-{(2S)-4-[2-(4-chloro-3-fluorophenoxy)acetamido]-2-hydroxybicyclo[2.2.2]octan-1-yl}-1,3-dimethyl-1H-pyrazole-4-carboxamide], the EC50 was > 2 µM.
On to `O=C(NC12CCC(NC(=O)c3cnc(-c4ccccc4)o3)(CC1)C2)c1cnc(-c2ccccc2)o1` [Compound 1055, N,N′-(bicyclo[2.2.1]heptane-1,4-diyl)bis(2-phenyl-1,3-oxazole-5-carboxamide)], for which the EC50 was in the range of 0.05 to 0.25 µM.
To `Cc1csc(C(=O)NC23CCC(NC(=O)COc4ccc(Cl)c(F)c4)(CC2)[C@@H](O)C3)n1` [Compound 1065, N-{(3S)-4-[2-(4-chloro-3-fluorophenoxy)acetamido]-3-hydroxybicyclo[2.2.2]octan-1-yl}-4-methyl-1,3-thiazole-2-carboxamide] belongs < 0.05 µM; to `COc1ncc(C(=O)NC23CCC(NC(=O)COc4ccc(Cl)c(F)c4)(CC2)[C@@H](O)C3)cn1` [Compound 1073, N-{(3S)-4-[2-(4-chloro-3-fluorophenoxy)acetamido]-3-hydroxybicyclo[2.2.2]octan-1-yl}-2-methoxypyrimidine-5-carboxamide], 0.05 to 0.25 µM.
To `O=C(NC12CC(NC(=O)c3cnc(-c4ccccc4)o3)(C1)C2)c1cnc(-c2ccccc2)o1` [Compound 1057, N,N′-(bicyclo[1.1.1]pentane-1,3-diyl)bis(2-phenyl-1,3-oxazole-5-carboxamide)] belongs < 0.05 µM; to `O=C(COc1ccc(Cl)c(F)c1)NC12CC(Nc3cccc(N4CCOCC4)n3)(C1)C2` [Compound 957, 2-(4-chloro-3-fluorophenoxy)-N-(3-{[6-(morpholin-4-yl)pyridin-2-yl]amino}bicyclo[1.1.1]pentan-1-yl)acetamide], 0.25 to 1 µM.
Regarding `O=C(COc1ccc(Cl)c(F)c1)NC12CCC(NC(=O)c3ccc(-c4ccc(F)cc4)cn3)(CC1)CC2O` (stereo not shown) [Compound 939, N-{4-[2-(4-chloro-3-fluorophenoxy)acetamido]-3-hydroxybicyclo[2.2.2]octan-1-yl}-5-(4-fluorophenyl)pyridine-2-carboxamide], the EC50 lay in the range of 0.25 to 1 µM.
Under `O=C(COc1ccc(Cl)c(F)c1)NC12CC(Nc3ccc4ncnc(N5CCOCC5)c4c3)(C1)C2` [Compound 958, 2-(4-chloro-3-fluorophenoxy)-N-(3-{[4-(morpholin-4-yl)quinazolin-6-yl]amino}bicyclo[1.1.1]pentan-1-yl)acetamide] stands 0.05 to 0.25 µM; under `N#CCCc1ccc(C(=O)NC23CC(NC(=O)COc4ccc(Cl)c(F)c4)(C2)C3)nc1` [Compound 335, N-{3-[2-(4-chloro-3-fluorophenoxy)acetamido]bicyclo[1.1.1]pentan-1-yl}-5-(2-cyanoethyl)pyridine-2-carboxamide], 0.05 to 0.25 µM; under `O=C(CCOc1ccc(Cl)c(F)c1)NC12CC(NC(=O)c3ccc(OC(F)(F)F)cn3)(C1)C2` [Compound 1079, N-{3-[3-(4-chloro-3-fluorophenoxy)propanamido]bicyclo[1.1.1]pentan-1-yl}-5-(trifluoromethoxy)pyridine-2-carboxamide], > 2 µM.
Under `Cc1cc(C(=O)NC23CCC(NC(=O)COc4ccc(Cl)c(Cl)c4)(CC2)C(=O)N3)on1` [Compound 1049, N-{4-[2-(3,4-dichlorophenoxy)acetamido]-3-oxo-2-azabicyclo[2.2.2]octan-1-yl}-3-methyl-1,2-oxazole-5-carboxamide] stands > 2 µM.
Under `Cc1csc(C(=O)NC23CCC(NC(=O)COc4ccc(F)c(Cl)c4)(CC2)[C@@H](O)C3)n1` [Compound 1063, N-{(3S)-4-[2-(3-chloro-4-fluorophenoxy)acetamido]-3-hydroxybicyclo[2.2.2]octan-1-yl}-4-methyl-1,3-thiazole-2-carboxamide] stands 0.25 to 1 µM.
On to `CCOC(=O)c1cncc(NC23CC(NC(=O)COc4ccc(Cl)c(F)c4)(C2)C3)c1` [Compound 965, ethyl 5-({3-[2-(4-chloro-3-fluorophenoxy)acetamido]bicyclo[1.1.1]pentan-1-yl}amino)pyridine-3-carboxylate], for which the EC50 is 0.25 to 1 µM.
On to `O=C(COc1ccc(Cl)c(F)c1)NC12CC(NC(=O)c3cnc(-c4cccnc4)o3)(C1)C2` [Compound 1042, N-{3-[2-(4-chloro-3-fluorophenoxy)acetamido]bicyclo[1.1.1]pentan-1-yl}-2-(pyridin-3-yl)-1,3-oxazole-5-carboxamide], for which the EC50 is < 0.05 µM.
Under `CCc1ncc(C(=O)NC23CCC(NC(=O)COc4ccc(Cl)c(F)c4)(CC2)C[C@@H]3O)o1` [Compound 1106, N-{(2S)-4-[2-(4-chloro-3-fluorophenoxy)acetamido]-2-hydroxybicyclo[2.2.2]octan-1-yl}-2-ethyl-1,3-oxazole-5-carboxamide] stands < 0.05 µM; under `CCc1c(C(=O)NC23CCC(NC(=O)COc4ccc(Cl)c(F)c4)(CC2)[C@@H](O)C3)nn(C)c1-c1ccccc1` [Compound 1019, N-{(3S)-4-[2-(4-chloro-3-fluorophenoxy)acetamido]-3-hydroxybicyclo[2.2.2]octan-1-yl}-4-ethyl-1-methyl-5-phenyl-1H-pyrazole-3-carboxamide], 1 to 2 µM; under `O=C(COc1ccc(Cl)c(F)c1)NC12CCC(NC(=O)c3cc(C(F)F)no3)(CC1)NC2=O` [Compound 1050, N-{4-[2-(4-chloro-3-fluorophenoxy)acetamido]-3-oxo-2-azabicyclo[2.2.2]octan-1-yl}-3-(difluoromethyl)-1,2-oxazole-5-carboxamide], > 2 µM.
For `O=C(COc1ccc(Cl)c(F)c1)NC12CCC(NC(=O)c3cc(-c4ccccc4)no3)(CC1)C[C@@H]2O` [Compound 1018, N-{(3S)-4-[2-(4-chloro-3-fluorophenoxy)acetamido]-3-hydroxybicyclo[2.2.2]octan-1-yl}-3-phenyl-1,2-oxazole-5-carboxamide], the EC50 was < 0.05 µM.
Under `O=C(COc1cccc(F)c1)NC12CCC(NC(=O)c3cc(C(F)F)no3)(CC1)C[C@@H]2O` [Compound 1070, 3-(difluoromethyl)-N-{(3S)-4-[2-(3-fluorophenoxy)acetamido]-3-hydroxybicyclo[2.2.2]octan-1-yl}-1,2-oxazole-5-carboxamide] stands 0.05 to 0.25 µM; under `O=C(COc1ccc(Cl)c(F)c1)NC12CCC(NC(=O)c3ccc(OC(F)(F)F)cn3)(CC1)CC2` [Compound 997, N-{4-[2-(4-chloro-3-fluorophenoxy)acetamido]bicyclo[2.2.2]octan-1-yl}-5-(trifluoromethoxy)pyridine-2-carboxamide], 0.05 to 0.25 µM; under `Cc1cnc(C(=O)NC23CC(NC(=O)c4cnc(-c5ccccc5)o4)(C2)C3)cn1` [Compound 1056, 5-methyl-N-{3-[(2-phenyl-1,3-oxazole-5-carbonyl)amino]bicyclo[1.1.1]pentan-1-yl}pyrazine-2-carboxamide], 0.25 to 1 µM.
Under `O=C(CCOc1ccc(Cl)c(F)c1)NC12CCC(NC(=O)c3cc(C(F)F)no3)(CC1)C[C@@H]2O` [Compound 1078, N-{(3S)-4-[3-(4-chloro-3-fluorophenoxy)propanamido]-3-hydroxybicyclo[2.2.2]octan-1-yl}-3-(difluoromethyl)-1,2-oxazole-5-carboxamide] stands 0.25 to 1 µM.
On to `Cn1nc(C(=O)NC23CCC(NC(=O)COc4ccc(Cl)c(Cl)c4)(CC2)[C@@H](O)C3)cc1C(F)(F)F` [Compound 1007, N-{(3S)-4-[2-(3,4-dichlorophenoxy)acetamido]-3-hydroxybicyclo[2.2.2]octan-1-yl}-1-methyl-5-(trifluoromethyl)-1H-pyrazole-3-carboxamide], for which the EC50 was < 0.05 µM.

Broadly, the EC50 is the concentration that produces a half-maximal response.
